According to patent US20230233500A1, “Gasdermin D (GSDMD) Succination for the Treatment of Inflammatory Disease” (University of Massachusetts, priority 2020, published 2023):
“Also recorded” adds a separate entry of the source. Where a name gives a salt, the structure may show the parent alone. Read-outs that look alike come from different tables or passages of the source.

What was measured:
human THP1 = assay: LPS-Nig induced cell death and LDH release in THP1 cells; format: cell-based; settings: PMA-differentiated THP1, fumarate 25 μM; for LPS-Nig induced cell death: SYTOX Orange
Procedure: (§1) FIGS. 6A-G. Fumarate inhibits pyroptosis in Human cells. (A-B) Representative images (A) and kinetic data (B) of SYTOX Orange and Hoechst-stained PMA-differentiated THP1 cells treated with LPS for 2 hours, DMSO (vehicle) or fumarate (25 μM) for 1 hour and nigericin (10 μM) for 6 hours. (C) LDH release from (A). (D-E) Kinetic cell death data of SYTOX Orange and Hoechst stained (D) or LDH assay of conditioned medium from primary CD14+ positive monocytes treated with LPS for 2 hours DMSO (vehicle) or fumarate (25 μM) for 1 hour and nigericin (10 μM) for 6 hours. (F) LC/MS quantification of fumarate in WT BMDMs treated with LPS for 2 hours, FHIN1 for 1 hour and nigericin for 1 hour. (G) Representative images of WT primary BMDMs stained with SYTOX Orange and Hoechst following treatment with LPS for 2 hours, DMSO (vehicle) or fumarate (25 μM) or FHIN1 (25 μM) for 1 hour and nigericin for a timecourse of 6 hours. A, B, D, G are representative of 3 independent experiments. C, E, F are pooled data from 3 independent experiments. ***, P<0.001, ****, P<0.00001 (Students t-test). Error bars show mean±SD (B, D) or SEM (C, E). Human kidney cell line HEK293T was cultured in Dulbecco's modified Eagle's medium supplemented with 10% (v/v) fetal bovine serum, 100 U/ml penicillin and 100 µg/ml streptomycin. Human peripheral blood monocyte cell line, THP1 cells were cultured in RPMI-1640 medium supplemented with 10% (v/v) fetal bovine serum, 100 U/ml penicillin and 100 µg/ml streptomycin. For isolation of BMDMs, tibias and femurs were removed from wild type and GsdmD^−/− mice and bone marrow was flushed with complete DMEM-medium. Cells were plated in medium containing 20% (v/v) conditioned medium of L929 mouse fibroblasts cultured for 7 days at 37° C. in a humidified atmosphere of 5% C02. Medium was replaced every 3 days. Cells were plated, treated and incubated in phenol red free medium. Following treatment medium was collected and assessed for LDH release using the CytoTox96 non-radioactive cytotoxicity assay (Promega) as per manufacturer's instructions. […]

CD14+ monocytes = assay: LPS-Nig induced cell death and LDH release in primary CD14+ monocytes; format: cell-based, human; settings: fumarate 25 μM
Procedure: as §1, with “E).” for “E). Human kidney cell line HEK293T was cultured in Dulbecco's modified Eagle's medium supplemented with 10% (v/v) fetal bovine serum, 100 U/ml penicillin and 100 µg/ml streptomycin. Human peripheral blood monocyte cell line, THP1 cells were cultured in RPMI-1640 medium supplemented with 10% (v/v) fetal bovine serum, 100 U/ml penicillin and 100 µg/ml streptomycin. For isolation of BMDMs, tibias and femurs were removed from wild type and GsdmD^−/− mice and bone marrow was flushed with complete DMEM-medium. Cells were plated in medium containing 20% (v/v) conditioned medium of L929 mouse fibroblasts cultured for 7 days at 37° C. in a humidified atmosphere of 5% C02. Medium was replaced every 3 days.”

h.GSDME = biological target: T1, h.GSDME (Homo sapiens, UniProt O60443); assay: In vitro succination reaction with LC-MS/MS peptide mapping; format: binding
T1 sequence (O60443 1-496): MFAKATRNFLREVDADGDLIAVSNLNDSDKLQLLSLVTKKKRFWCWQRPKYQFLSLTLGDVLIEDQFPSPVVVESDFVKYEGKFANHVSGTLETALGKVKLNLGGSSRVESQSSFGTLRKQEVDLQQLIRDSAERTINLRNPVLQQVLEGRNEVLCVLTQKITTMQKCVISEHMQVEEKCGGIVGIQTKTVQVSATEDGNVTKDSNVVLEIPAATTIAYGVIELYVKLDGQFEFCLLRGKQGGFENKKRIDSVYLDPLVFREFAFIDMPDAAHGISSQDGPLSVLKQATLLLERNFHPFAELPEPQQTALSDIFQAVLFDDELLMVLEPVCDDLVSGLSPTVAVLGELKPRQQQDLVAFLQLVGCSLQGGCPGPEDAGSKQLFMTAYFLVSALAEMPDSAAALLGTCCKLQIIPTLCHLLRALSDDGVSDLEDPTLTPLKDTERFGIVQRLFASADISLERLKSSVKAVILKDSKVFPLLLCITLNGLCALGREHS

h.GSDMD = biological target: T2, h.GSDMD (Homo sapiens, UniProt P57764); assay: as above; format: binding; settings: recombinant h.GSDMD
T2 sequence (P57764 1-484): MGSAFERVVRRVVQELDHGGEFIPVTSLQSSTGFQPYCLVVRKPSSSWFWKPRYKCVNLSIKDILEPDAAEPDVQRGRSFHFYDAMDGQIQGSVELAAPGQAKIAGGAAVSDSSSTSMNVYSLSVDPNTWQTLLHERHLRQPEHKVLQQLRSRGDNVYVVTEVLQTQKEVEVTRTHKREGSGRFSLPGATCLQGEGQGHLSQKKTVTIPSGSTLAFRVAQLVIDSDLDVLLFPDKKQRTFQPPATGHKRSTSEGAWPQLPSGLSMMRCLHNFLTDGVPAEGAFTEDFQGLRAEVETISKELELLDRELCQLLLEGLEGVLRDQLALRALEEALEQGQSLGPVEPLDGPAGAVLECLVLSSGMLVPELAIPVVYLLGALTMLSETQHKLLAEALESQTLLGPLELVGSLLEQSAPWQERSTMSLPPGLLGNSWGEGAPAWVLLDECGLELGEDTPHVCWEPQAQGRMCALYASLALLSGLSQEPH

With `COC(=O)/C=C/C(=O)OC` [Fumarate, Dimethyl fumarate] the “LPS-Nig induced LDH release” value (human THP1) was “blocked”, the “LPS-Nig induced cell death” value (human THP1) was “blocked” and the “LPS-Nig induced cell death” value (human THP1; listed as fumarate) was “inhibited cell death”. The “LPS-Nig induced LDH release” value (CD14+ monocytes) was “blocked”, the “LPS-Nig induced cell death” value (CD14+ monocytes; SYTOX Orange) was “blocked” and the “In vitro cysteine succination sites” value (h.GSDME) was “Cys^45”. The “In vitro cysteine succination sites” value (h.GSDME; listed as DMF) was “Cys235; also recorded: Cys371; also recorded: Cys408; also recorded: Cys489; also recorded: Cys45; also recorded: Cys156; also recorded: Cys180”, the “In vitro cysteine succination sites” value (h.GSDMD) was “same cysteines” and the “In vitro cysteine succination sites” value (h.GSDMD; listed as DMF) was “Cys309; also recorded: Cys467; also recorded: Cys56; also recorded: Cys191; also recorded: Cys268”.
